molecular target: Acinetobacter baumannii rAcpA (Acinetobacter baumannii, UniProt A0ABX6CG12); test: Hydrolysis of various phosphorylated compounds by rAcpA (released phosphate); type: biochemical; settings: phosphate released relative to paranitrophenol released from PNPP x100; compound at 0.1 mM final concentration
Procedure: All incubations were carried out for 30 minutes at 37 °C after which time reactions were placed in an ice slurry for 3 minutes followed by addition of enzyme to the respective blanks and reactions were terminated by heating at 65 °C for 10 minutes followed by immersion in an ice slurry for 3 minutes. Released phosphate was determined by addition of 1.0 mL BIOMOL GREEN phosphate reagent (Enzo Life Sciences), and monitored at 620 nm using a Genesys 10 UV Scanning Spectrophotometer (Thermo Scientific). Paranitrophenol was monitored at 405 nm following addition of 1.7 mL 0.5 M Glycine buffer, pH 10. Following subtraction of blank values, paranitrophenol and released phosphate were quantitated using paranitrophenol and phosphate standard curves, respectively. […] Specific activity is expressed as nmoles paranitrophenol or free phosphate liberated mg^-1s^-1.

| Compound | Relative Activity [%] |
| --- | --- |
| K-R-pT-I-R-R [Threonine Phosphopeptide] | 0.0 |
| R-R-A-pS-V-A [Serine Phosphopeptide] | 0.0 |

same assay, conditions: phosphate released relative to paranitrophenol released from PNPP x100; compound at 0.1 mM final concentration; listed as serine phosphopeptide

| Compound | Relative Activity [%] |
| --- | --- |
| R-R-A-pS-V-A [Serine Phosphopeptide] | 0 |

same assay, conditions: phosphate released relative to paranitrophenol released from PNPP x100; compound at 0.1 mM final concentration; listed as threonine phosphopeptide

| Compound | Relative Activity [%] |
| --- | --- |
| K-R-pT-I-R-R [Threonine Phosphopeptide] | 0 |

same assay, conditions: phosphate released relative to paranitrophenol released from PNPP x100; compound at 2.0 mM final concentration

| Compound | Relative Activity [%] |
| --- | --- |
| O=P(O)(O)OC[C@H]1O[C@H](O[C@H]2O[C@H](CO)[C@@H](O)[C@H](O)[C@H]2O)[C@H](O)[C@@H](O)[C@@H]1O [Trehalose-6-Phosphate] | 4.0 |
| Cc1ncc(COP(=O)(O)O)c(C=O)c1O [Pyridoxal Phosphate] | 35.3 |
| Nc1ncnc2c1ncn2[C@@H]1O[C@H](COP(=O)(O)O)[C@@H](O)[C@H]1O [AMP] | 27.0 |
| O=C[C@H](O)[C@@H](O)[C@H](O)[C@H](O)COP(=O)(O)O [Glucose-6-Phosphate] | 2.7 |
| Nc1nc2c(ncn2[C@@H]2O[C@H](COP(=O)(O)OP(=O)(O)O)[C@@H](O)[C@H]2O)c(=O)[nH]1 [GDP] | 1.0 |
| O=c1[nH]cnc2c1ncn2[C@@H]1O[C@H](COP(=O)(O)OP(=O)(O)O)[C@@H](O)[C@H]1O [IDP] | 0.5 |
| Nc1ncnc2c1ncn2[C@@H]1O[C@H](CO)[C@@H](OP(=O)(O)O)[C@H]1O [3’-AMP] | 63.0 |
| N[C@@H](Cc1ccc(OP(=O)(O)O)cc1)C(=O)O [Phospho-L-Tyrosine] | 31.5 |
| N[C@@H](COP(=O)(O)O)C(=O)O [Phospho-L-Serine] | 0.4 |
| NCCOP(=O)(O)O [Phosphoethanolamine] | 1.8 |
| Cc1ncc(C[n+]2csc(CCO[P@](=O)(O)OP(=O)(O)O)c2C)c(N)n1 [Thiamine Pyrophosphate] | 3.6 |
| NC(=O)C1=CN([C@@H]2O[C@H](COP(=O)(O)OP(=O)(O)OC[C@H]3O[C@@H](n4cnc5c(N)ncnc54)[C@H](OP(=O)(O)O)[C@@H]3O)[C@@H](O)[C@H]2O)C=CC1 [NADPH] | 3.5 |
| O=P(O)(O)O[C@H]1[C@H](OP(=O)(O)O)[C@@H](OP(=O)(O)O)[C@H](OP(=O)(O)O)[C@@H](OP(=O)(O)O)[C@H]1OP(=O)(O)O [Phytic acid] | 0.0 |
| O=P(O)(O)O[C@H]1O[C@H](CO)[C@H](O)[C@H](O)[C@H]1O [Galactose-1-Phosphate] | 0.0 |
| Cc1cn([C@H]2C[C@H](O)[C@@H](COP(=O)(O)OP(=O)(O)O)O2)c(=O)[nH]c1=O [TDP] | 3.0 |
| Cc1cn([C@H]2C[C@H](O)[C@@H](COP(=O)(O)O)O2)c(=O)[nH]c1=O [TMP] | 27.3 |
| Cc1ncc(C[n+]2csc(CCOP(=O)(O)O)c2C)c(N)n1 [Thiamine Monophosphate] | 12.3 |
| Nc1ncnc2c1ncn2[C@@H]1O[C@H](COP(=O)(O)OP(=O)(O)OP(=O)(O)O)[C@@H](O)[C@H]1O [ATP] | 1.1 |
| Nc1ncnc2c1ncn2[C@@H]1O[C@H](COP(=O)(O)OP(=O)(O)O)[C@@H](O)[C@H]1O [ADP] | 1.9 |
| C=C(OP(=O)(O)O)C(=O)O [PEP] | 7.6 |
| O=c1ccn([C@@H]2O[C@H](COP(=O)(O)O)[C@@H](O)[C@H]2O)c(=O)[nH]1 [UMP] | 8.7 |
| O=C(COP(=O)(O)O)[C@@H](O)[C@H](O)[C@H](O)COP(=O)(O)O [Fructose-1,6-bisphosphate] | 6.6 |
| O=P(O)(O)OC(CO)CO [β-Glycerol Phosphate] | 40.0 |
| O=C[C@H](O)[C@H](O)[C@H](O)COP(=O)(O)O [Ribose-5-Phosphate] | 20.0 |

same assay, conditions: phosphate released relative to paranitrophenol released from PNPP x100; compound at 2.0 mM final concentration; listed as galactose-1-phosphate

| Compound | Relative Activity |
| --- | --- |
| O=P(O)(O)O[C@H]1O[C@H](CO)[C@H](O)[C@H](O)[C@H]1O [Galactose-1-Phosphate] | not hydrolyzed |

same assay, conditions: phosphate released relative to paranitrophenol released from PNPP x100; compound at 2.0 mM final concentration; listed as phytic acid

| Compound | Relative Activity |
| --- | --- |
| O=P(O)(O)O[C@H]1[C@H](OP(=O)(O)O)[C@@H](OP(=O)(O)O)[C@H](OP(=O)(O)O)[C@@H](OP(=O)(O)O)[C@H]1OP(=O)(O)O [Phytic acid] | not hydrolyzed |
